The source made the active and inactive calls.
Legend:
BJ [1] = assay: BJ-TERT fibroblast viability loss – cell-based, RAS-independent, luminescence, dose response (AID 1933); assay type: functional; conditions: Homo sapiens
BJ [2] = assay: cells; assay type: functional, cell-based; conditions: Homo sapiens
BJ [3] = assay: BJ-TERT-LT-ST fibroblast viability loss – cell-based, RAS-independent, luminescence, dose response (AID 1935); assay type: functional; conditions: Homo sapiens;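 also: BJ fibroblasts immortalized with TERT plus LT and ST oncogenes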
[4] = DRD fibroblast viability loss – cell-based, non-viral oncogenic, luminescence, dose response (AID 1934); assay type: functional; conditions: Homo sapiens
[5] = target: Glutathione S-transferase omega-1 (Homo sapiens, UniProt P78417); assay: IC50 of human GSTO1 inhibition by gel ABPP – biochemical, SE-Rh probe, in-gel fluorescence, powder samples, late-stage follow-up (AID 463081); assay type: functional
Glutathione S-transferase omega-1, sequence (P78417 whole entry): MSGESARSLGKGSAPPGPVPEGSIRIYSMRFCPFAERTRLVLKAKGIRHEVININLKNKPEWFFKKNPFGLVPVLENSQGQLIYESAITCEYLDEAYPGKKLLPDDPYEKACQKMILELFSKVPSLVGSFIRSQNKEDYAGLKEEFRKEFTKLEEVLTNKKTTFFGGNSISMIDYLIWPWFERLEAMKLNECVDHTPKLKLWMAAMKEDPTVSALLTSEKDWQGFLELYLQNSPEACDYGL

[6] = Late stage assay provider results from the probe development effort to identify inhibitors of GSTO1: luminescence-based […] dose response assay to determine cytotoxicity of inhibitor compounds. [Related pubchem assays (depositor defined):AID1515, AID1974, AID2175, AID2176, AID463081, AID463098, AID463101, AID463102, AID463110, AID463142] Panel member name: Assay 1: % Surviving cells, serum-free media; assay type: toxicity, cell-based
[7] = Late stage assay provider results from the probe development effort to identify inhibitors of GSTO1: luminescence-based biochemical dose response assay to determine cytotoxicity of inhibitor compounds. [Related pubchem assays (depositor defined):AID1515, AID1974, AID2175, AID2176, AID463081, AID463098, AID463101, AID463102, AID463110, AID463142] Panel member name: Assay 2: % Surviving cells, media plus FCS; assay type: toxicity, cell-based
[8] = target: T1, Microphthalmia-associated transcription factor (Homo sapiens, UniProt O75030); assay: reducers of TRPM1 reporter luminescence, concentration series – cell-based, SK-MEL-5, cherry-picked, set 3, MITF inhibitor project, dose response (AID 493073); assay type: functional;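 also: SK-MEL-5 melanoma cells with luciferase driven by the MITF target TRPM1 promoter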
T1 sequence (O75030 whole entry): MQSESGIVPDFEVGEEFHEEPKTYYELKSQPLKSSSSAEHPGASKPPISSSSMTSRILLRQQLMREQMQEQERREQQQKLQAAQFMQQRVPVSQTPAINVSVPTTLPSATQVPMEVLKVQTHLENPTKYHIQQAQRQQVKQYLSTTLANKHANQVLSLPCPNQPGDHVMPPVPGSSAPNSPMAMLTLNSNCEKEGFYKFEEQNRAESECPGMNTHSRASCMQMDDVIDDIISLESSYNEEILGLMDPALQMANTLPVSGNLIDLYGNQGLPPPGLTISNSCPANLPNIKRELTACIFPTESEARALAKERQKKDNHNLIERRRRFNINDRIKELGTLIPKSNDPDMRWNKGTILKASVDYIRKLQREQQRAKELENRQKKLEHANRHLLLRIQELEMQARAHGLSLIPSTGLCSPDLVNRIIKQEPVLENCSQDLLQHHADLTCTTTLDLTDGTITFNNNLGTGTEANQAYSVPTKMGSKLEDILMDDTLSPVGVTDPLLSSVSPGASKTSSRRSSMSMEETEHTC

[9] = target: T2, Replicative DNA helicase DnaB (Mycobacterium tuberculosis, UniProt P9WMR3); assay: DnaB intein splicing inhibitors, dose response, biochemical, cell-free fluorescence (AID 449749); assay type: functional
T2 sequence (P9WMR3 whole entry): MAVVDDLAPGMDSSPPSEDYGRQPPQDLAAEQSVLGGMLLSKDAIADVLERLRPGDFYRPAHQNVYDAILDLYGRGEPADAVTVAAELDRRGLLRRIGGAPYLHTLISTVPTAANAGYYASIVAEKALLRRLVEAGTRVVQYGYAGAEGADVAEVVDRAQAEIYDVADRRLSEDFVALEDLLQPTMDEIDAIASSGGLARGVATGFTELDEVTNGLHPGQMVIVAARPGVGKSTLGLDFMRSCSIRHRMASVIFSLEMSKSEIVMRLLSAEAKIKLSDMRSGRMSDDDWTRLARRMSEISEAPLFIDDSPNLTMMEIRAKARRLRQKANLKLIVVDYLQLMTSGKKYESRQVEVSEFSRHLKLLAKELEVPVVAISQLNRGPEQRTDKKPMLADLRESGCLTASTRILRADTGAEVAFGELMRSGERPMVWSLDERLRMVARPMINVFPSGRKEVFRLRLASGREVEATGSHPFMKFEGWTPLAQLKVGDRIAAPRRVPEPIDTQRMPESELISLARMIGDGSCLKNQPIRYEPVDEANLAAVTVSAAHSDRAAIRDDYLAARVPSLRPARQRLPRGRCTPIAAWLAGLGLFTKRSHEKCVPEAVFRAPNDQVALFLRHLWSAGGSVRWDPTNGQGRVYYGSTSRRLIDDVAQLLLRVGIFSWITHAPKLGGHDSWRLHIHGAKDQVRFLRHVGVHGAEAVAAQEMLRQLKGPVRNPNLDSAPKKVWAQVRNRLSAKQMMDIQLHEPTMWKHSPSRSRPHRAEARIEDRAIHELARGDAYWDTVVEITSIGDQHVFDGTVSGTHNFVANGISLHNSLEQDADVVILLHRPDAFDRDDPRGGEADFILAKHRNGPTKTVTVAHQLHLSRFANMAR

Protein RecA = target: T3, Protein RecA (Mycobacterium tuberculosis, UniProt P9WHJ3); assay: Fluorescence Cell-Free Homogeneous Dose Retest to Identify Inhibitors of RecA-Intein Splicing Activity. [Related pubchem assays (depositor defined):AID2097, AID2223, AID489010, AID492950]; assay type: functional
T3 sequence (P9WHJ3 whole entry): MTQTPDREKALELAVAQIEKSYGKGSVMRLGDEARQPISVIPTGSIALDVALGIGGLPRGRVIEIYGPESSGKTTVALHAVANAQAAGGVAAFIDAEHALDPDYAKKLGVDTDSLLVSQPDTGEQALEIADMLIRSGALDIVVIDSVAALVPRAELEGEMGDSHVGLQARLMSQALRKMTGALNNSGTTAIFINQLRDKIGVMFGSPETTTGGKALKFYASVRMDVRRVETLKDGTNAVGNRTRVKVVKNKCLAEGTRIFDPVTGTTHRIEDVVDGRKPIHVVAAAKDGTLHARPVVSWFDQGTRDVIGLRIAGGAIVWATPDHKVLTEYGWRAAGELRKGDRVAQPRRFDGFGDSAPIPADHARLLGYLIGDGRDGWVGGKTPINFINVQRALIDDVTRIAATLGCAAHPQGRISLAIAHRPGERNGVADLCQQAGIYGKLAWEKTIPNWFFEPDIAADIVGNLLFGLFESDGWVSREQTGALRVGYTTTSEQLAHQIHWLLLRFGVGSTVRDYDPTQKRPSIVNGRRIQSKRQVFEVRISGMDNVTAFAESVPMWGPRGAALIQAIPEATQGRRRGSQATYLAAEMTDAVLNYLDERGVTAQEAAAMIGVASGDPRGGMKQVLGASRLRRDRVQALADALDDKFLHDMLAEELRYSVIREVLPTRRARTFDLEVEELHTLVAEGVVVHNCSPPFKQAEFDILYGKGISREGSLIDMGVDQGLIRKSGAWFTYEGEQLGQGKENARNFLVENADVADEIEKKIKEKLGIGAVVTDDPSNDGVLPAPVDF

Paired box protein Pax-8 = Paired box protein Pax-8 (Homo sapiens, UniProt Q06710); assay: PAX8 transcriptional activity inhibition in RMG-I – RMG-I cells, luciferase, cherry-pick, dose response (AID 687027); assay type: functional, cell-based;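 also: luciferase reporter driven by Pax8 target thyroperoxidase promoter measured by SteadyGlo luminescence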
[10] = general cell-killing toxicity readout – plate reader, dry powder samples, cytotoxicity control for PAX8 inhibitor project, dose response (AID 743021); assay type: functional, cell-based
[11] = tested on: Streptococcus sp. 'group A'; assay: Streptococcus pyogenes SK(-)GAS viability under kanamycin – luminescence, BacTiterGlo, confirmation, counter-screen for streptokinase expression inhibitor project, dose response (AID 1900); assay type: functional, organism-based
Streptococcus = assay: GAS UMAA2166 growth inhibition – luminescence, BacTiterGlo, counter-screen for streptokinase expression inhibitor project, dose response (AID 1915); assay type: functional, organism-based;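 also: potency for reduction of bacterial viability or growth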
[12] = THP-1 cell cytotoxicity, dose response, cytotoxicity control for non-replicating M. tuberculosis project (AID 489025); assay type: functional
[13] = Luminescence Cell-Based Dose Retest to Confirm Inhibitors of Cancer Stem Cells. [Related pubchem assays (depositor defined):AID2717, AID2721]; assay type: functional; conditions: Homo sapiens
[14] = HepG2 cell cytotoxicity, dose response, cytotoxicity control for non-replicating M. tuberculosis project (AID 489018); assay type: functional; conditions: Mycobacterium tuberculosis
[15] = target: C-C chemokine receptor type 6 (Homo sapiens, UniProt P51684); assay: antagonism of CCR6 beta-arrestin recruitment – cell-based, luminescent beta-arrestin readout, dose response (AID 504728); assay type: functional
C-C chemokine receptor type 6, sequence (P51684 whole entry): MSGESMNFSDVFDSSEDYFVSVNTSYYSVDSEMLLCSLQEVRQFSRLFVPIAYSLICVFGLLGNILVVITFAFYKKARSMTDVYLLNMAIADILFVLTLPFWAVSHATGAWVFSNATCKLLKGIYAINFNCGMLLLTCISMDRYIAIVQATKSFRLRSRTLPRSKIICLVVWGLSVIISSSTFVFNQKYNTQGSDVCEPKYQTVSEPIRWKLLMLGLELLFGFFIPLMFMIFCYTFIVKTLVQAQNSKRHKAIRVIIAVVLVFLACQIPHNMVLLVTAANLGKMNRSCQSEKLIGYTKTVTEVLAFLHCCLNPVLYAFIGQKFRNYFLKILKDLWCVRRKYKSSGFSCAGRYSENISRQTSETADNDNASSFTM

Beta-galactosidase = Beta-galactosidase (Escherichia coli, UniProt Q8VNN2); assay: detection-enzyme interference by beta-gal modulators – biochemical, E. coli enzyme, set 3, artefact control for CCR6 antagonist project, dose response (AID 504712); assay type: functional
Beta-galactosidase, sequence (Q8VNN2 whole entry): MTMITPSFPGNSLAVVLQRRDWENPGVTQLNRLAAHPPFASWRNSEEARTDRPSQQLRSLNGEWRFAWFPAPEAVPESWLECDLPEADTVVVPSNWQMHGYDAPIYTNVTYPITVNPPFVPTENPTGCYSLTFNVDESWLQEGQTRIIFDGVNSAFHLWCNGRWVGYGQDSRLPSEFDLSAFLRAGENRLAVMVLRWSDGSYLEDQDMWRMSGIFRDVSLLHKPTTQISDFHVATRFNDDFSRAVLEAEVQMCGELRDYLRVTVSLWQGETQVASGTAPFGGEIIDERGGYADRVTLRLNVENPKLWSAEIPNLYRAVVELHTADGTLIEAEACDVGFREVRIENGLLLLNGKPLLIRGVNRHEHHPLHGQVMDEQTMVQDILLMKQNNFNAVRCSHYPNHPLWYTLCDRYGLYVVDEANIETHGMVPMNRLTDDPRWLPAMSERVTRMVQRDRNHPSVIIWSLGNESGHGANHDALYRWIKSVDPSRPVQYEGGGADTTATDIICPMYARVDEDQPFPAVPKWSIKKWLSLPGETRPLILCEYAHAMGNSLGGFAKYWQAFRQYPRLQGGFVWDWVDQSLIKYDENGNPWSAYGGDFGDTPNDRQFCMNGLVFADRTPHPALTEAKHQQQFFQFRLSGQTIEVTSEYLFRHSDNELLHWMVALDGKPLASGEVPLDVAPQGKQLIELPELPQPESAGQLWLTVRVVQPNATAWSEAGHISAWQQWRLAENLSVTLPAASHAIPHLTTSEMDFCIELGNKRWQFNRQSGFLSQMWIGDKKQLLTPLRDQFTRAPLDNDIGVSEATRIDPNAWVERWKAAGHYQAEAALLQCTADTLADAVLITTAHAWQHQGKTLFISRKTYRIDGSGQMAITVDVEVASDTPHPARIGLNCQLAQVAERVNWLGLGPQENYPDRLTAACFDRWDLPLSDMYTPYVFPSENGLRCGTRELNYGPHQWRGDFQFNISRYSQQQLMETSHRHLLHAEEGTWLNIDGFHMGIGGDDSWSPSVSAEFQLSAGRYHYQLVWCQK

[16] = Vero E6 cell cytotoxicity, dose response, cytotoxicity control for non-replicating M. tuberculosis project, secondary assay (AID 492998); assay type: functional, VeroE6; conditions: Vero C1008
cells = assay type: functional
[17] = target: 1-acylglycerol-3-phosphate O-acyltransferase ABHD5/Perilipin-5 (Homo sapiens, UniProt Q00G26+Q8WTS1); assay: Luminescence-based biochemical high throughput dose response assay for inhibitors of the interaction of the lipase co-activator protein, abhydrolase domain containing 5 (ABHD5) with perilipin-5 (MLDP; PLIN5) (2K validation set). [Related pubchem assays (depositor defined):AID493035, AID493241]
Perilipin-1/ABHD5 = Perilipin-1/ABHD5 (Homo sapiens, UniProt O60240+Q8WTS1); assay: Luminescence-based biochemical high throughput dose response assay for inhibitors of the interaction of the lipase co-activator protein, abhydrolase domain containing 5 (ABHD5) with perilipin-1 (PLIN1) (2K validation set). [Related pubchem assays (depositor defined):AID493027, AID493057]
Perilipin-1/ABHD5, sequence (Q8WTS1 whole entry, the tested form may be a part): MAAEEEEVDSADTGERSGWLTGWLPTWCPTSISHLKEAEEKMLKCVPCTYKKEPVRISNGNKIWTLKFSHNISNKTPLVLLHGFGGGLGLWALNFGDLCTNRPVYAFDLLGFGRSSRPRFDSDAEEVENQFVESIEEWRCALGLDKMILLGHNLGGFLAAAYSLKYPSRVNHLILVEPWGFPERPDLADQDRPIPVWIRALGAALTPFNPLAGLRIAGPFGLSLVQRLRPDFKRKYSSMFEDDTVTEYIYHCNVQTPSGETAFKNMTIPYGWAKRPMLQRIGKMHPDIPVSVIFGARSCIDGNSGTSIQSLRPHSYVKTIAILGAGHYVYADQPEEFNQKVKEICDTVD
Perilipin-1/ABHD5, sequence (O60240 whole entry, the tested form may be a part): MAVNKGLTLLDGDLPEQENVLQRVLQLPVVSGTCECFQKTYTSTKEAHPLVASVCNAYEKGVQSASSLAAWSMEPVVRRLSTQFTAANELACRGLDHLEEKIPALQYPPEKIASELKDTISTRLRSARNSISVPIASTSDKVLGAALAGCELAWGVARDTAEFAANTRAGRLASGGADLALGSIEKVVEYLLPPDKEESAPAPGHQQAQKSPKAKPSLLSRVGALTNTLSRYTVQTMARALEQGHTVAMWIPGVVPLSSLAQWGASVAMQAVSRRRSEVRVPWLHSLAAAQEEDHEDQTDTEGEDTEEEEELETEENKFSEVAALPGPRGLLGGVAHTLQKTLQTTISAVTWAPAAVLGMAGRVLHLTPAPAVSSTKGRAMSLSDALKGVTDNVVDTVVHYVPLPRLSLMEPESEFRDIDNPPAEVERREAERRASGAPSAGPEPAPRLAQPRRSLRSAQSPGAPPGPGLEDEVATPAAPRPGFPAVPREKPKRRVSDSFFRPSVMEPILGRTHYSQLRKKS

Genome polyprotein = Genome polyprotein (dengue virus type 2, UniProt P29990); assay: flavivirus cap methylation enzyme inhibition – biochemical, confirmation dose response, primary screen (AID 588689); assay type: functional
Genome polyprotein, sequence (P29990 2492-3391 limits assumed): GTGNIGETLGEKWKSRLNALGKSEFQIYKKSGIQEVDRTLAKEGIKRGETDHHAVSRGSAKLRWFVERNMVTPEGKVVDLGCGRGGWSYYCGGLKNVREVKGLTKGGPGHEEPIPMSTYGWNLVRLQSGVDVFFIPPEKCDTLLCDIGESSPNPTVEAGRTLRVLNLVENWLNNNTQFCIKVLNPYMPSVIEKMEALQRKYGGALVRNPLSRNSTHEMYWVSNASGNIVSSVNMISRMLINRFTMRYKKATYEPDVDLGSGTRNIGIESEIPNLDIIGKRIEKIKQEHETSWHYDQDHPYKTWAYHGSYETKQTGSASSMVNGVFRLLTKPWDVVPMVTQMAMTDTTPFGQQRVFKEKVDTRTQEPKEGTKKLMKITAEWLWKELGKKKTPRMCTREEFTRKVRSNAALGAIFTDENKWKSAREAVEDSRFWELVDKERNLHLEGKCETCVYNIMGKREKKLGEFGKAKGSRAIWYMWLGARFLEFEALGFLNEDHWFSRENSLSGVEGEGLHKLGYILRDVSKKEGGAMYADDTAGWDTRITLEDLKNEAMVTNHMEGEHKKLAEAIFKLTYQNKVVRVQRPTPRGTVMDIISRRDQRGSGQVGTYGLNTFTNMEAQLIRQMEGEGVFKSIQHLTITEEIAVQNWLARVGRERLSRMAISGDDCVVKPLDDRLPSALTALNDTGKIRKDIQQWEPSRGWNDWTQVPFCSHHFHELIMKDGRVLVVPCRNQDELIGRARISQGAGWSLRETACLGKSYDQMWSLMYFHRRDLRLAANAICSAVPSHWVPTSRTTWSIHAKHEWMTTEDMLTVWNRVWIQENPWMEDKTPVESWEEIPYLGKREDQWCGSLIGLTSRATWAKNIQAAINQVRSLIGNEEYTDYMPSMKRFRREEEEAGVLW

[18] = target: Voltage-dependent T-type calcium channel subunit alpha-1H (Homo sapiens, UniProt O95180); assay: human CACNA1H calcium influx blockade – cell-based, synthetic library set 1, calcium flux (AID 493022); assay type: functional
Mu-type opioid receptor = Mu-type opioid receptor (Homo sapiens, UniProt P35372); assay: SAR Analysis of Antagonists of the MOR Receptor using an Image-Based Assay - Set 3. [Related pubchem assays (depositor defined):AID1777, AID1785, AID1786, AID1966, AID2133, AID2136, AID2284, AID2285, AID2420]; assay type: functional
Mu-type opioid receptor, sequence (P35372 whole entry): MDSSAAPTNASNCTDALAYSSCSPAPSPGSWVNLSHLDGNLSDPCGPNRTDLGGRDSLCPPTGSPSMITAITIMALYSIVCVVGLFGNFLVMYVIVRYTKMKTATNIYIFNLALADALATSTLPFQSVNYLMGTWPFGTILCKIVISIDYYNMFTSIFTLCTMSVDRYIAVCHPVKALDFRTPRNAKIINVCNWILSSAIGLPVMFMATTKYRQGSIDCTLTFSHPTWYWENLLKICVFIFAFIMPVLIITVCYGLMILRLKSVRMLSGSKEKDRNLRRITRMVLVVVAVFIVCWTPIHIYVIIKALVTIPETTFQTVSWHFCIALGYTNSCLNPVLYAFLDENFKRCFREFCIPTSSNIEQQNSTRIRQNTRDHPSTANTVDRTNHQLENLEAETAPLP

[19] = target: T4, Kappa-type opioid receptor (Homo sapiens, UniProt P41145); assay: SAR analysis of small molecule antagonists of the kappa opioid receptor via a luminescent beta-arrestin assay - Set 6. [Related pubchem assays (depositor defined):AID1777, AID1778, AID1785, AID1786, AID1966, AID2133, AID2136, AID2285]; assay type: functional
T4 sequence (P41145 whole entry): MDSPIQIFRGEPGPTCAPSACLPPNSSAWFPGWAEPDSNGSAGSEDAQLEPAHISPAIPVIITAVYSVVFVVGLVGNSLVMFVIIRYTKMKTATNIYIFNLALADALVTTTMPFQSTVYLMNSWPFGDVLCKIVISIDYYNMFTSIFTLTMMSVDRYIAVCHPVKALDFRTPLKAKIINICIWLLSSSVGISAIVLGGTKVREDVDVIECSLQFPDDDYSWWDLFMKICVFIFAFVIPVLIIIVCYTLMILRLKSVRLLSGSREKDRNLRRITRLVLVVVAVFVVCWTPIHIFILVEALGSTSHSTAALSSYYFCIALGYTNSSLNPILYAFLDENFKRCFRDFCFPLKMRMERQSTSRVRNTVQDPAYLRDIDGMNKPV

[20] = target: T4, Kappa-type opioid receptor; assay: SAR analysis of small molecule antagonists of the kappa opioid receptor via a luminescent beta-arrestin assay - Set 4. [Related pubchem assays (depositor defined):AID1777, AID1778, AID1785, AID1786, AID1966, AID2133, AID2136, AID2285]; assay type: functional
[21] = target: Delta-type opioid receptor (Homo sapiens, UniProt P41143); assay: SAR Analysis of Antagonists of the DOR Receptor using an Image-Based Assay - Set 3. [Related pubchem assays (depositor defined):AID1777, AID1785]; assay type: functional;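 also: U2OS cells expressing DOR1 and beta-arrestin GFP stimulated with 100 nM SNC80; imaging of GFP-tagged beta-arrestin moving into spots after receptor activation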
Delta-type opioid receptor, sequence (P41143 whole entry): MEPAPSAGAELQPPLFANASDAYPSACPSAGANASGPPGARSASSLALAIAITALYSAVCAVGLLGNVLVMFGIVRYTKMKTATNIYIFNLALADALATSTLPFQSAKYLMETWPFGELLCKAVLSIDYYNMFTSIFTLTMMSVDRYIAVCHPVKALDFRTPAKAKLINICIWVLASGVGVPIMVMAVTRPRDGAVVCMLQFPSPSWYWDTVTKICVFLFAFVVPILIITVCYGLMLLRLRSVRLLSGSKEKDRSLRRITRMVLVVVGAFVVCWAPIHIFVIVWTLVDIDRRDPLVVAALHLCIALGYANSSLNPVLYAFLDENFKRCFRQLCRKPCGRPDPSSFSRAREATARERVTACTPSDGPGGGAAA

[22] = target: T4, Kappa-type opioid receptor; assay: SAR analysis of Antagonists of the Kappa Opioid Receptor (KOR) using an Image-Based Assay - Set 4. [Related pubchem assays (depositor defined):AID1777, AID1785]; assay type: functional

COc1ccc(N(C(=O)CCl)C(C(=O)NC2CCCCC2)c2cccnc2)cc1 (stereo not given)
active: EC50 (BJ [1]) 1.01 µM | EC50 (BJ [2]) 4.5 µM | IC50 [5] 0.067 µM | AC50 [8] 5.87 µM | AC50 [9] 7.67 µM | EC50 (Protein RecA) 0.619 µM | AC50 (Paired box protein Pax-8) 1.3 µM | AC50 [10] 3.18 µM
inconclusive: EC50 (BJ [3]) 7.37 µM | EC50 [4] 2.63 µM
inactive: CC50 [6] > 45 µM | CC50 [7] > 35 µM

Cc1cc(NCc2ccccn2)n2nc(C)c(-c3ccc(Cl)cc3)c2n1
inactive: IC50 [15] > 66.6 µM | IC50 (Beta-galactosidase) > 66.6 µM
active: EC50 [11] 2.89 µM | EC50 (Streptococcus) 6.9 µM | CC50 [12] 6.61 µM | AC50 [13] 3.86 µM | CC50 [14] 3.6 µM | CC50 [16] 15.1 µM | IC50 (cells) 2.1 µM

CCOc1ccc(N2C(=O)NC(=O)/C(=C\c3cc(OC)c(OC)cc3[N+](=O)[O-])C2=O)cc1
active: IC50 [17] 2.8 µM | IC50 (Perilipin-1/ABHD5) 2.21 µM | IC50 (Genome polyprotein) 27.6 µM

O=C(COc1ccccc1F)Nc1nnc(-c2ccc3c(c2)OCO3)o1
active: EC50 [18] 10 µM

COc1ccc(N2CCN(CCCCNC(=O)Cn3c(=O)c4cccn4c4c(C)ccnc43)CC2)cc1
inactive: IC50 (Mu-type opioid receptor) > 32 µM | IC50 [21] > 32 µM
active: IC50 [19] 1.59 µM | IC50 [20] 0.907 µM | IC50 [22] 0.00521 µM

Source: ChEMBL document CHEMBL1201862, “PubChem BioAssay data set” (2004)
